In patent US9765075B2, “Substituted bridged urea analogs as sirtuin modulators” (GLAXOSMITHKLINE LLC, priority 2013, dated 2017):

Biological target: T1, SIRT1 (Homo sapiens, UniProt Q96EB6)
T1 sequence (Q96EB6 1-747): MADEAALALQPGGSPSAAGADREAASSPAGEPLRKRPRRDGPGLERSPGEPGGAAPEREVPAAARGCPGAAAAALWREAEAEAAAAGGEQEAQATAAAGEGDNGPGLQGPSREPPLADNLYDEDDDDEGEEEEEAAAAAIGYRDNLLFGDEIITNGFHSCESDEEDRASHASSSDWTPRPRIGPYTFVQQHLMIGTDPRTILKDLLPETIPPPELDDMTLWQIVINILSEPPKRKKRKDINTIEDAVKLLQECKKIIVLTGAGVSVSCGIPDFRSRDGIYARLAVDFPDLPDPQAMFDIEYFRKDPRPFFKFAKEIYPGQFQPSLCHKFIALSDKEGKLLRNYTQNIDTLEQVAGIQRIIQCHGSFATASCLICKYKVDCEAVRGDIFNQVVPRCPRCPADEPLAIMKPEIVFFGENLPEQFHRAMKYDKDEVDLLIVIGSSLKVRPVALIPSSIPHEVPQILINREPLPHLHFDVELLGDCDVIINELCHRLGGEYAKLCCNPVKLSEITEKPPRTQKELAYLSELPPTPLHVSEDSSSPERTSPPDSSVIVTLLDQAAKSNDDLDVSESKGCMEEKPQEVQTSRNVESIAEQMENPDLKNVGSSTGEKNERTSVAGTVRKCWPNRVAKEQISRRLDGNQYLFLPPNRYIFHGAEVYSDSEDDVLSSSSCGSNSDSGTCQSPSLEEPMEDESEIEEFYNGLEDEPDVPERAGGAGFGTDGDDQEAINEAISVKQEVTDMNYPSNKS
Assay: Trp mass spectrometry assay (SIRT1 activation)
Format: biochemical
Details: Trp mass spectrometry assay; EC1.5 = concentration giving 150% activation of SIRT1
From the text: Mass spectrometry based assays were used to identify modulators of SIRT1 activity. […] The peptide was labeled with the fluorophore 5TMR (excitation 540 nm/emission 580 nm) at the C-terminus. The sequence of the peptide substrate was based on p53 with several modifications. In addition, the methionine residue naturally present in the sequence was replaced with the norleucine because the methionine may be susceptible to oxidation during synthesis and purification. The Trp based assay utilized a peptide having an amino acid residues as follows: Ac-R-H-K-K(Ac)-W-NH2 (SEQ ID NO: 2).
The Trp mass spectrometry assay was conducted as follows. 0.5 μM peptide substrate and 120 μM βNAD^+ were incubated with 10 nM SIRT1 for 25 minutes at 25° C. in a reaction buffer (50 mM HEPES pH 7.5, […] NaCl, 1 mM DTT, 0.05% BSA). The SIRT1 protein was obtained by cloning the SirT1 gene into a T7-promoter containing vector, which was then expressed in BL21(DE3) bacterial cells and purified as described in further detail below. Test compound was added at varying concentrations to this reaction mixture and the resulting reactions were monitored. After the 25 minute incubation with SIRT1, 10 μL of 10% formic acid was added to stop the reaction. The resulting reactions were sealed and frozen for later mass spec analysis. The relative SIRT1 activity was then determined by measuring the amount of 0-acetyl-ADP-ribose (OAADPR) formed (or, alternatively, the amount of deacetylated Trp peptide generated) by the NAD-dependent sirtuin deacetylation reaction in the presence of varying concentrations of the test compound versus control reactions lacking the test compound. The degree to which the test agent activated deacetylation by SIRT1 was expressed as EC1.5 (i.e., the concentration of compound required to increase SIRT1 activity by 50% over the control lacking test compound), and Percent Maximum Activation (i.e., the maximum activity relative to control (100%) obtained for the test compound).
A control for activation of sirtuin activity was conducted using 10 nM of sirtuin protein, with 1 μL of DMSO in place of compound, to determine the amount of deacetylation of the substrate at a given time point within the linear range of the assay. This time point was the same as that used for test compounds and, within the linear range, the endpoint represents a change in velocity.
For the above assay, SIRT1 protein was expressed and purified as follows. The SirT1 gene was cloned into a T7-promoter containing vector and transformed into BL21(DE3). The protein was expressed by induction with 1 mM IPTG as an N-terminal His-tag fusion protein at 18° C. overnight and harvested at 30,000×g. Cells were lysed with lysozyme in lysis buffer (50 mM Tris-HCl, 2 mM Tris[2-carboxyethyl] phosphine (TCEP), 10 μM ZnCl2, 200 mM NaCl) and further treated with sonication for 10 min for complete lysis. The protein was purified over a Ni-NTA column (Amersham) and fractions containing pure protein were pooled, concentrated and run over a sizing column (Sephadex S200 26/60 global). The peak containing soluble protein was collected and run on an Ion-exchange column (MonoQ). Gradient elution (200 mM-500 mM NaCl) yielded pure protein. This protein was concentrated and dialyzed against dialysis buffer (20 mM Iris-HCl, 2 mM TCEP) overnight. The protein was aliquoted and frozen at −80° C. until further use.

| Tryp AVG EC1.5 (μM) | Structure (SMILES) |
| --- | --- |
| A (EC1.5<1 μM) | O=C(Nc1ccccn1)N1c2nc(-c3cccc(C(F)(F)F)c3)ccc2N2CC[C@H]1C2 [816 (7)] |

Same assay, conditions: Trp mass spectrometry assay; EC1.5 = concentration of test compound that results in 150% activation of SIRT1

| Tryp AVG EC1.5 (μM) | Structure (SMILES) |
| --- | --- |
| A (EC1.5<1 μM) | O=C(Nc1cccc(-c2cnco2)c1)N1c2nc(-c3cccc(C(F)(F)F)c3)ccc2N2CC[C@H]1C2 [68 (1)] |
| A (EC1.5<1 μM) | Cc1cnc2c(NC(=O)N3c4nc(-c5cccc(C(F)(F)F)c5)ccc4N4CC[C@H]3C4)cccc2n1 [76 (8)] |
| A (EC1.5<1 μM) | CCn1ncc2c(NC(=O)N3c4nc(-c5cccc(C(F)(F)F)c5)ccc4N4CC[C@H]3C4)cccc21 [81 (9)] |
| B (EC1.5 1-25 μM) | Cc1cc(OCC(O)CO)nc(NC(=O)N2c3nc(-c4cccc(C(F)(F)F)c4)ccc3N3CC[C@H]2C3)n1 (stereo partly shown) [Example 26] |

Same assay, conditions: Trp mass spectrometry assay; percent maximum fold activation of SIRT1; read-out: Tryp % Fold Act

| Emax [%] | Structure (SMILES) |
| --- | --- |
| ≥ 150 | O=C(Nc1cccc(-c2cnco2)c1)N1c2nc(-c3cccc(C(F)(F)F)c3)ccc2N2CC[C@H]1C2 [68 (1)] |
| ≥ 150 | Cc1cnc2c(NC(=O)N3c4nc(-c5cccc(C(F)(F)F)c5)ccc4N4CC[C@H]3C4)cccc2n1 [76 (8)] |
| ≥ 150 | CCn1ncc2c(NC(=O)N3c4nc(-c5cccc(C(F)(F)F)c5)ccc4N4CC[C@H]3C4)cccc21 [81 (9)] |
| ≥ 150 | O=C(Nc1ccccn1)N1c2nc(-c3cccc(C(F)(F)F)c3)ccc2N2CC[C@H]1C2 [816 (7)] |
| ≥ 150 | O=C(Nc1cnccn1)N1c2nc(-c3cccc(C(F)(F)F)c3)ccc2N2CC[C@H]1C2 [Example 10] |
| ≥ 150 | O=C(Nc1cccnn1)N1c2nc(-c3cccc(C(F)(F)F)c3)ccc2N2CC[C@H]1C2 [Example 11] |
| ≥ 150 | O=C(Nc1ccncn1)N1c2nc(-c3cccc(C(F)(F)F)c3)ccc2N2CC[C@H]1C2 [Example 12] |
| ≥ 150 | Cc1cc(C)nc(NC(=O)N2c3nc(-c4cccc(C(F)(F)F)c4)ccc3N3CC[C@H]2C3)c1 [Example 13] |
| < 150 | Cc1cccnc1NC(=O)N1c2nc(-c3cccc(C(F)(F)F)c3)ccc2N2CC[C@H]1C2 [Example 14] |
| ≥ 150 | O=C(Nc1ccncc1F)N1c2nc(-c3cccc(C(F)(F)F)c3)ccc2N2CC[C@H]1C2 [Example 15] |
| ≥ 150 | O=C(Nc1ccnc(O[C@H]2CCOC2)n1)N1c2nc(-c3cccc(C(F)(F)F)c3)ccc2N2CC[C@H]1C2 [Example 16] |
| ≥ 150 | O=C(Nc1cccnc1)N1c2nc(-c3cccc(C(F)(F)F)c3)ccc2N2CC[C@H]1C2 [Example 17] |
| ≥ 150 | O=C(Nc1cnc(OC[C@H](O)CO)cn1)N1c2nc(-c3cccc(C(F)(F)F)c3)ccc2N2CC[C@H]1C2 [Example 18] |
| ≥ 150 | O=C(Nc1ccccn1)N1c2nc(-c3cccc(Cl)c3)ccc2N2CC[C@H]1C2 [Example 19] |
| ≥ 150 | O=C(Nc1cncc(F)c1)N1c2nc(-c3cccc(C(F)(F)F)c3)ccc2N2CC[C@H]1C2 [Example 20] |
| ≥ 150 | Cc1cnccc1NC(=O)N1c2nc(-c3cccc(C(F)(F)F)c3)ccc2N2CC[C@H]1C2 [Example 21] |
| ≥ 150 | COc1cc(NC(=O)N2c3nc(-c4cccc(C(F)(F)F)c4)ccc3N3CC[C@H]2C3)nc(OC)n1 [Example 22] |
| ≥ 150 | O=C(Nc1cncnc1)N1c2nc(-c3cccc(C(F)(F)F)c3)ccc2N2CC[C@H]1C2 [Example 23] |
| ≥ 150 | O=C(Nc1ccncc1F)N1c2nc(-c3cccc(Cl)c3)ccc2N2CC[C@H]1C2 [Example 24] |
| ≥ 150 | Cn1ccc(NC(=O)N2c3nc(-c4cccc(C(F)(F)F)c4)ccc3N3CC[C@H]2C3)n1 [Example 25] |
| ≥ 150 | Cc1cc(OCC(O)CO)nc(NC(=O)N2c3nc(-c4cccc(C(F)(F)F)c4)ccc3N3CC[C@H]2C3)n1 (stereo partly shown) [Example 26] |

| Emax [%] | Structure (SMILES) |
| --- | --- |
| ≥ 150 | O=C(Nc1cnccn1)N1c2nc(-c3cccc(C(F)(F)F)c3)ccc2N2CCC[C@H]1C2 [Example 27] |
| ≥ 150 | O=C(Nc1cccnn1)N1c2nc(-c3cccc(C(F)(F)F)c3)ccc2N2CCC[C@H]1C2 [Example 28] |
| ≥ 150 | O=C(Nc1ccncn1)N1c2nc(-c3cccc(C(F)(F)F)c3)ccc2N2CCC[C@H]1C2 [Example 29] |
| ≥ 150 | Cc1cc(C)nc(NC(=O)N2c3nc(-c4cccc(C(F)(F)F)c4)ccc3N3CCC[C@H]2C3)c1 [Example 30] |
| ≥ 150 | COc1cc(NC(=O)N2c3nc(-c4cccc(C(F)(F)F)c4)ccc3N3CCC[C@H]2C3)nc(OC)n1 [Example 31] |
| ≥ 150 | COc1nccc(NC(=O)N2c3nc(-c4cccc(C(F)(F)F)c4)ccc3N3CCC[C@H]2C3)n1 [Example 32] |
| ≥ 150 | Cc1nc(NC(=O)N2c3nc(-c4cccc(C(F)(F)F)c4)ccc3N3CCC[C@H]2C3)sc1C [Example 33] |
| ≥ 150 | COc1cc(NC(=O)N2c3nc(-c4cccc(C(F)(F)F)c4)ccc3N3CC[C@H]2C3)ncn1 [Example 34] |
| ≥ 150 | Cc1cccnc1NC(=O)N1c2nc(-c3cccc(C(F)(F)F)c3)ccc2N2CCC[C@H]1C2 [Example 35] |
| ≥ 150 | Cn1ccc(NC(=O)N2c3nc(-c4cccc(C(F)(F)F)c4)ccc3N3CCC[C@H]2C3)n1 [Example 36] |
| ≥ 150 | Cc1cnccc1NC(=O)N1c2nc(-c3cccc(C(F)(F)F)c3)ccc2N2CCC[C@H]1C2 [Example 37] |
| ≥ 150 | O=C(Nc1cncnc1)N1c2nc(-c3cccc(C(F)(F)F)c3)ccc2N2CCC[C@H]1C2 [Example 38] |
| ≥ 150 | O=C(Nc1ccc(F)cn1)N1c2nc(-c3cccc(C(F)(F)F)c3)ccc2N2CCC[C@H]1C2 [Example 39] |
| ≥ 150 | Cn1cc(NC(=O)N2c3nc(-c4cccc(C(F)(F)F)c4)ccc3N3CCC[C@H]2C3)cn1 [Example 40] |
| ≥ 150 | COc1cc(NC(=O)N2c3nc(-c4cccc(C(F)(F)F)c4)ccc3N3CCC[C@H]2C3)ncn1 [Example 41] |
| ≥ 150 | O=C(Nc1ccncc1F)N1c2nc(-c3cccc(C(F)(F)F)c3)ccc2N2CCC[C@H]1C2 [Example 42] |
| ≥ 150 | O=C(Nc1ccc(F)cn1)N1c2nc(-c3cccc(Cl)c3)ccc2N2CC[C@H]1C2 [Example 43] |
| ≥ 150 | Cc1cnccc1NC(=O)N1c2nc(-c3cccc(Cl)c3)ccc2N2CC[C@H]1C2 [Example 44] |
| ≥ 150 | O=C(Nc1cncc(F)c1)N1c2nc(-c3cccc(C(F)(F)F)c3)ccc2N2CCC[C@H]1C2 [Example 45] |
| ≥ 150 | O=C(Nc1ccc(F)cn1)N1c2nc(-c3cccc(C(F)(F)F)c3)ccc2N2CC[C@H]1C2 [Example 46] |
| ≥ 150 | COc1nccc(NC(=O)N2c3nc(-c4cccc(C(F)(F)F)c4)ccc3N3CC[C@H]2C3)n1 [Example 47] |

Same assay, conditions: concentration of test compound that results in 150% activation of SIRT1; Trp peptide substrate

| Tryp AVG EC1.5 (μM) | Structure (SMILES) |
| --- | --- |
| A (EC1.5<1 μM) | O=C(Nc1cccnc1)N1c2nc(-c3cccc(C(F)(F)F)c3)ccc2N2CCC[C@H]1C2 [314 (5)] |
| A (EC1.5<1 μM) | NCc1ccc(NC(=O)N2c3nc(-c4cccc(C(F)(F)F)c4)ccc3N3CCC[C@H]2C3)cc1 [444 (4)] |
| B (EC1.5 1-25 μM) | O=C(CCCCCNC(=O)c1ccc(-c2c3ccc(=O)cc-3oc3cc(O)ccc23)c(C(=O)O)c1)NCc1ccc(NC(=O)N2c3nc(-c4cccc(C(F)(F)F)c4)ccc3N3CCC[C@H]2C3)cc1 [546 (3)] |
| A (EC1.5<1 μM) | COc1cc(NC(=O)N2c3nc(-c4cncc(C)c4)ccc3N3CCC[C@H]2C3)ncn1 [EX-527, reference compound] |

Same assay, conditions: percent maximum fold activation of SIRT1; Trp peptide substrate; read-out: Tryp % Fold Act

| Emax [%] | Structure (SMILES) |
| --- | --- |
| ≥ 150 | O=C(Nc1cccnc1)N1c2nc(-c3cccc(C(F)(F)F)c3)ccc2N2CCC[C@H]1C2 [314 (5)] |
| ≥ 150 | NCc1ccc(NC(=O)N2c3nc(-c4cccc(C(F)(F)F)c4)ccc3N3CCC[C@H]2C3)cc1 [444 (4)] |
| < 150 | O=C(CCCCCNC(=O)c1ccc(-c2c3ccc(=O)cc-3oc3cc(O)ccc23)c(C(=O)O)c1)NCc1ccc(NC(=O)N2c3nc(-c4cccc(C(F)(F)F)c4)ccc3N3CCC[C@H]2C3)cc1 [546 (3)] |
| ≥ 150 | COc1cc(NC(=O)N2c3nc(-c4cncc(C)c4)ccc3N3CCC[C@H]2C3)ncn1 [EX-527, reference compound] |
